Test results taken from patent US20060257466A1, “Administration of macrophage targeted formulations of compounds which modulate cholesterol-metabolizing enzymes for treatment of atherosclerosis” (priority 2005, published 2006).

System: J774 macrophages
Test: Cholesterol efflux in vivo (macrophage cholesterol export)
Conditions: mice injected with [3H]-cholesterol-loaded J774 cells; 20 μg, tail vein; versus PBS vehicle; FIG. 1
Description: FIG. 1 is a line graph comparing in vivo macrophage cholesterol export in mice treated with a liposomal formulation of the ACAT inhibitor, Sandoz 58-035, at an estimated dose of 20 μg (open circles), mice treated with 20 μg of free non-liposome formulated Sandoz 58-035 (closed circles), and mice administered phosphate buffered saline (closed triangles).
For non-liposome formulated Sandoz 58-035 experiments, 10 ul of the stock solution (2 mg/ml) was diluted with 190 ul of phosphate buffered saline (PBS) to give a final Sandoz 58-035 solution of 20 μg/200 μl. Two hundred microliters of this solution containing 20 μg of Sandoz 58-035 was injected into each mouse through the tail vein.
Sandoz 58-035 was liposome formulated using a modified method of Jonas and co-workers (Jonas et al. J. Bio. Chem. 1989 264:4818-4825). […]
To determine cholesterol export in vivo, J774 cells were loaded with cholesterol and simultaneously incubated for 3 hours with 0.5 μCi/mL [^3H]-cholesterol, followed by an overnight equilibration period as described by Tam et al. (J. Lipid Res. 2002 43:1410-1420). […] Cholesterol efflux was determined by measuring the appearance of [^3H]-cholesterol in plasma by scintillation spectrometry. […]

## CCCCCCCCCC[Si](C)(C)CCC(=O)NC(Cc1ccc(C)cc1)c1ccccc1 (stereo not shown) [Sandoz 58-035]
  in vivo macrophage cholesterol export (result in words): did not increase macrophage cholesterol export over the vehicle
